# Assays:
# [1] = tested on: total antioxidant capacity (TAS); assay: Total antioxidant capacity (TAS) in serum of white rats, colorimetric kit (Test Example 2); assay type: in vivo, white rats (male, SD rats); conditions: oral administration for 5 weeks
# Method: In order to examine the change in antioxidant activity by administration of probiotics and vitamin C (group G4) according to the present invention, antioxidant enzyme activity and serum vitamin levels were measured in the following manner. Blood was collected from the orbits of the white rats of Example 1. The collected blood was incubated at room temperature for 2 hours, and then centrifuged at 1500×g at 4° C. for 15 minutes to separate sera, and the separated sera were stored at −80° C. until use in experiments. In order to measure the defense system composed of antioxidant vitamins, non-enzymatic antioxidant substances and antioxidant enzymes, which defend against the toxicity of reactive oxygen species and total antioxidant capacity (TAS) values were measured using a kit of measuring antioxidant activity based on a colorimetry assay.
# [2] = Weight change of white rats on oral administration of probiotics and vitamin C (Test Example 1); assay type: in vivo, white rats (male, SD rats); conditions: N = 5
# Method: In order to verify the effect of a combination of probiotics and vitamin C on anti-aging and the like, 4-week-old white rats (male, SD rats, Saeronbio, Korea) were purchased. Two of the animals were housed in each polypropylene cage and acclimated for one week while they were allowed access to feed and water ad libitum. In addition, the animals were housed at a temperature of 24±2° C. and a relative humidity of 40±20% with a 12-hr light/12-hr dark cycle. During the acclimation period, the health of the rats was checked, and among these rats, animals whose activity was not reduced were selected and used in subsequent tests. […] In order to examine the stability and phenotype of each white rat when the probiotics and the vitamin C were administered to the test animals for 5 weeks in Example 1, the weight change patterns of the white rats during the period from the day before administration to 5 weeks after the start of administration in Example 1 were measured, and the results of the measurement are shown in Table 2 below.
# [3] = tested on: L. rhamnosus; assay: Distribution of L. rhamnosus in feces of white rats by real-time PCR (Test Example 4); assay type: in vivo, white rats (male, SD rats); conditions: intestinal feces at 5 weeks after oral administration
# Method: (§1) In order to examine the change in intestinal microorganisms by administration of probiotics and vitamin C according to the present invention, expression of genesspecific for L. rhamnosus and E. faecium in the test groups (G1 to G4) prepared in Example 1 was measured.
# (§2) At 5 weeks after oral administration in Example 1, intestinal feces were isolated from the rats of G1 to G4, and DNA was extracted using an MP bio stool kit according to the manufacturer's protocol. Using the extracted DNA, real-time polymerase chain reaction (PCR) was performed using primers specific for L. rhamnosus and E. faecium. The results are shown in FIGS. 4 and 5 and Tables 6 and 7 below.
# [4] = tested on: superoxide dismutase (SOD); assay: Activity of superoxide dismutase in serum of white rats, colorimetric assay kit (Test Example 2); assay type: in vivo, white rats (male, SD rats); conditions: oral administration for 5 weeks
# Method: In order to examine the change in antioxidant activity by administration of probiotics and vitamin C (group G4) according to the present invention, antioxidant enzyme activity and serum vitamin levels were measured in the following manner. Blood was collected from the orbits of the white rats of Example 1. The collected blood was incubated at room temperature for 2 hours, and then centrifuged at 1500×g at 4° C. for 15 minutes to separate sera, and the separated sera were stored at −80° C. until use in experiments. For measurement of the activity of antioxidant enzyme in the separated sera, the activity of superoxide dismutase in the sera was measured using a superoxide dismutase assay kit based on a colorimetry assay, and the results of the measurement are shown in FIG. 1 and Table 3 below.
# [5] = Vitamin C levels in sera of white rats by HPLC; assay type: in vivo; conditions: male, SD, rat, 1000 mg/head, serum of white rats, oral administration for 5 weeks, read-out: Vit C (serum vitamin C level), Mean ± SD
# Method: Blood was collected from the orbits of the white rats of Example 1. The collected blood was incubated at room temperature for 2 hours, and then centrifuged at 1500×g at 4° C. for 15 minutes to separate sera, and the separated sera were stored at −80° C. until use in experiments.
# For measurement of vitamin C levels in the sera of the white rats prepared in Example 1, high-performance liquid chromatography (HPLC) analysis was performed using a vitamin C reagent kit, and the results of the analysis are shown in FIG. 3 and Table 5 below.
# [6] = tested on: E. faecium; assay: Distribution of E. faecium in feces of white rats by real-time PCR (Test Example 4); assay type: in vivo, white rats (male, SD rats); conditions: intestinal feces at 5 weeks after oral administration
# Method: as §1, §2
compound,measurement,setting,value
"O=C1O[C@H]([C@@H](O)CO)C(O)=C1O [G3, L-ascorbic acid]","TAS, Mean ± SD",[1],1.568 ± 0.01708 mmol/L
same,"Change in weight, Mean","[2]; 0 week (day before administration), oral",137.6 g
same,"Change in weight, Mean",[2]; 1 week of oral administration,178.8 g
same,"Change in weight, Mean",[2]; 2 weeks of oral administration,237.8 g
same,"Change in weight, Mean",[2]; 3 weeks of oral administration,293.0 g
same,"Change in weight, Mean",[2]; 4 weeks of oral administration,338.1 g
same,"Change in weight, Mean",[2]; 5 weeks of oral administration,354.1 g
same,"L. rhamnosus, Mean ± SD",[3],7.340 ± 0.09975 Nlog10/1 g feces
same,"SOD, Mean ± SD",[4],6.248 ± 0.08967 U/L
same,concentration at 5 weeks,[5],32.5 ± 1.29 µM
same,"E. faecium, Mean ± SD",[6],7.032 ± 0.1134 Nlog10/1 g feces

# Source: patent US20180117103A1, “COMPOSITION FOR ANTIOXIDATION AND IMPROVEMENT OF SKIN CONDITIONS” (CELL BIOTECH CO., LTD., priority 2016, published 2018)
